From PubChem BioAssay AID180 (DTP/NCI, 2004)
Several values for one entry are separate records, joined by “and”; a condition that tells them apart may be missing. Equal entries are not always repeated.

System: BDF1 mice, Adenocarcinoma 755 s.c., tumor weight T/C
Assay: NCI In Vivo Anticancer Drug Screen. Data for tumor model Adenocarcinoma 755 (subcutaneous) in B6D2F1 (BDF1) mice
Conditions: endpoint: mean tumor weight, higher = larger tumour
How it was run: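 Transplantable tumor implanted; mice dosed with compound or vehicle; survival or tumor size recorded; ratio of treated to vehicle control reported.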

Structure (SMILES): OCC1OC(n2cnc3c(=S)nc[nH]c32)C(O)C1O (stereo not drawn)
- T/C (dose: 0.28 mg/kg/injection, schedule: Q01DX011 (ip), vehicle: carboxymethylcellulose (CMC)): 47 % of control
- T/C (dose: 0.5 mg/kg/injection, schedule: Q01DX011 (ip), vehicle: saline): 31 % of control
- T/C (dose: 0.56 mg/kg/injection, schedule: Q01DX011 (ip), vehicle: carboxymethylcellulose (CMC)): 100 % of control
- T/C (dose: 1.0 mg/kg/injection, schedule: Q01DX011 (oral), vehicle: methylcellulose (MC)): 59 % of control
- T/C (dose: 1.0 mg/kg/injection, schedule: Q01DX011 (oral), vehicle: saline): 63 % of control
- T/C (dose: 1.12 mg/kg/injection, schedule: Q01DX011 (ip), vehicle: carboxymethylcellulose (CMC)): 30 % of control
- T/C (dose: 1.25 mg/kg/injection, schedule: Q01DX011 (ip), vehicle: saline): 26 % of control
- T/C (dose: 1.5 mg/kg/injection, schedule: Q01DX011 (ip), vehicle: carboxymethylcellulose (CMC)): 65 % of control
- T/C (dose: 2.0 mg/kg/injection, schedule: Q01DX011 (oral), vehicle: methylcellulose (MC)): 9 % of control
- T/C (dose: 2.0 mg/kg/injection, schedule: Q01DX011 (oral), vehicle: saline): 47 % of control
- T/C (dose: 2.23 mg/kg/injection, schedule: Q01DX011 (ip), vehicle: carboxymethylcellulose (CMC)): 4 % of control and 7 % of control
- T/C (dose: 2.5 mg/kg/injection, schedule: Q01DX011 (ip), vehicle: carboxymethylcellulose (CMC)): 34 % of control
- T/C (dose: 3.0 mg/kg/injection, schedule: Q01DX011 (oral), vehicle: methylcellulose (MC)): 14 % of control
- T/C (dose: 3.75 mg/kg/injection, schedule: Q01DX011 (ip), vehicle: carboxymethylcellulose (CMC)): 6 % of control and 12 % of control
- T/C (dose: 4.0 mg/kg/injection, schedule: Q01DX011 (oral), vehicle: methylcellulose (MC)): 4 % of control
- T/C (dose: 4.0 mg/kg/injection, schedule: Q01DX011 (oral), vehicle: saline): 9 % of control
- T/C (dose: 4.47 mg/kg/injection, schedule: Q01DX011 (ip), vehicle: carboxymethylcellulose (CMC)): 10 % of control
- T/C (dose: 5.0 mg/kg/injection, schedule: Q01DX011 (oral), vehicle: methylcellulose (MC)): 3 % of control
- T/C (dose: 7.5 mg/kg/injection, schedule: Q01DX011 (ip), vehicle: carboxymethylcellulose (CMC)): 5 % of control and 8 % of control
- T/C (dose: 8.0 mg/kg/injection, schedule: Q01DX011 (oral), vehicle: saline): 7 % of control
- T/C (dose: 8.94 mg/kg/injection, schedule: Q01DX011 (ip), vehicle: carboxymethylcellulose (CMC)): 5 % of control
- T/C (dose: 10.0 mg/kg/injection, schedule: Q01DX006 (iv), vehicle: saline): 2 % of control
- T/C (dose: 10.0 mg/kg/injection, schedule: Q01DX011 (ip), vehicle: saline): 4 % of control
- T/C (dose: 10.0 mg/kg/injection, schedule: Q01DX011 (oral), vehicle: methylcellulose (MC)): 2 % of control
- T/C (dose: 10.0 mg/kg/injection, schedule: Q01DX011 (sc), vehicle: saline): 4 % of control
- T/C (dose: 10.0 mg/kg/injection, schedule: Q03DX004 (im), vehicle: saline): 3 % of control
- T/C (dose: 15.0 mg/kg/injection, schedule: Q01DX011 (ip), vehicle: carboxymethylcellulose (CMC)): 2 % of control and 7 % of control
- T/C (dose: 17.87 mg/kg/injection, schedule: Q01DX011 (ip), vehicle: carboxymethylcellulose (CMC)): 6 % of control
- T/C (dose: 18.75 mg/kg/injection, schedule: Q01DX011 (ip), vehicle: carboxymethylcellulose (CMC)): 2 % of control
- T/C (dose: 20.0 mg/kg/injection, schedule: Q01DX006 (iv), vehicle: saline): 2 % of control
- T/C (dose: 20.0 mg/kg/injection, schedule: Q01DX011 (ip), vehicle: saline): 4 % of control
- T/C (dose: 20.0 mg/kg/injection, schedule: Q01DX011 (sc), vehicle: saline): 2 % of control
- T/C (dose: 20.0 mg/kg/injection, schedule: Q03DX004 (im), vehicle: saline): 2 % of control
- T/C (dose: 25.0 mg/kg/injection, schedule: Q01DX011 (ip), vehicle: carboxymethylcellulose (CMC)): 3 % of control
- T/C (dose: 35.75 mg/kg/injection, schedule: Q01DX011 (ip), vehicle: carboxymethylcellulose (CMC)): 5 % of control
- T/C (dose: 37.5 mg/kg/injection, schedule: Q01DX011 (ip), vehicle: carboxymethylcellulose (CMC)): 2 % of control and 5 % of control
- T/C (dose: 40.0 mg/kg/injection, schedule: Q01DX006 (iv), vehicle: saline): 3 % of control
- T/C (dose: 40.0 mg/kg/injection, schedule: Q01DX010 (oral), vehicle: saline): 3 % of control
- T/C (dose: 40.0 mg/kg/injection, schedule: Q01DX011 (ip), vehicle: saline): 3 % of control
- T/C (dose: 40.0 mg/kg/injection, schedule: Q01DX011 (sc), vehicle: saline): 4 % of control
- T/C (dose: 40.0 mg/kg/injection, schedule: Q03DX004 (im), vehicle: saline): 1 % of control
- T/C (dose: 57.0 mg/kg/injection, schedule: Q01DX011 (ip), vehicle: carboxymethylcellulose (CMC)): 9 % of control
- T/C (dose: 71.5 mg/kg/injection, schedule: Q01DX011 (ip), vehicle: carboxymethylcellulose (CMC)): 5 % of control
- T/C (dose: 73.0 mg/kg/injection, schedule: Q01DX011 (ip), vehicle: carboxymethylcellulose (CMC)): 4 % of control
- T/C (dose: 75.0 mg/kg/injection, schedule: Q01DX011 (ip), vehicle: carboxymethylcellulose (CMC)): 4 % of control
- T/C (dose: 80.0 mg/kg/injection, schedule: Q01DX006 (iv), vehicle: saline): 3 % of control
- T/C (dose: 80.0 mg/kg/injection, schedule: Q01DX011 (ip), vehicle: alkali diluted with saline): 4 % of control
- T/C (dose: 80.0 mg/kg/injection, schedule: Q01DX011 (ip), vehicle: saline): 5 % of control
- T/C (dose: 80.0 mg/kg/injection, schedule: Q01DX011 (sc), vehicle: saline): 4 % of control
- T/C (dose: 80.0 mg/kg/injection, schedule: Q03DX004 (im), vehicle: saline): 2 % of control
- T/C (dose: 115.0 mg/kg/injection, schedule: Q01DX011 (ip), vehicle: carboxymethylcellulose (CMC)): 3 % of control
- T/C (dose: 120.0 mg/kg/injection, schedule: Q01DX011 (ip), vehicle: alkali diluted with saline): 2 % of control and 3 % of control
- T/C (dose: 143.0 mg/kg/injection, schedule: Q01DX011 (ip), vehicle: carboxymethylcellulose (CMC)): 5 % of control
- T/C (dose: 146.0 mg/kg/injection, schedule: Q01DX011 (ip), vehicle: carboxymethylcellulose (CMC)): 6 % of control
- T/C (dose: 150.0 mg/kg/injection, schedule: Q01DX011 (ip), vehicle: carboxymethylcellulose (CMC)): 4 % of control
- T/C (dose: 160.0 mg/kg/injection, schedule: Q01DX011 (ip), vehicle: alkali diluted with saline): 3 % of control
- T/C (dose: 200.0 mg/kg/injection, schedule: Q01DX011 (ip), vehicle: carboxymethylcellulose (CMC)): 6 % of control
- T/C (dose: 225.0 mg/kg/injection, schedule: Q01DX011 (ip), vehicle: carboxymethylcellulose (CMC)): 6 % of control
- T/C (dose: 231.0 mg/kg/injection, schedule: Q01DX011 (ip), vehicle: carboxymethylcellulose (CMC)): 5 % of control
- T/C (dose: 250.0 mg/kg/injection, schedule: Q01DX011 (ip), vehicle: carboxymethylcellulose (CMC)): 3 % of control
- T/C (dose: 300.0 mg/kg/injection, schedule: Q01DX011 (ip), vehicle: carboxymethylcellulose (CMC)): 7 % of control
- T/C (dose: 320.0 mg/kg/injection, schedule: Q01DX001 (ip), vehicle: alkali diluted with saline): 5 % of control and 7 % of control
- T/C (dose: 320.0 mg/kg/injection, schedule: Q01DX001 (oral), vehicle: alkali diluted with saline): 18 % of control
- T/C (dose: 320.0 mg/kg/injection, schedule: Q03DX004 (ip), vehicle: alkali diluted with saline): 1 % of control and 5 % of control
- T/C (dose: 320.0 mg/kg/injection, schedule: Q03DX004 (oral), vehicle: alkali diluted with saline): 2 % of control
- T/C (dose: 320.0 mg/kg/injection, schedule: Q07DX002 (ip), vehicle: alkali diluted with saline): 3 % of control and 7 % of control
- T/C (dose: 320.0 mg/kg/injection, schedule: Q07DX002 (oral), vehicle: alkali diluted with saline): 4 % of control
- T/C (dose: 480.0 mg/kg/injection, schedule: Q01DX001 (ip), vehicle: alkali diluted with saline): 4 % of control and 9 % of control
- T/C (dose: 480.0 mg/kg/injection, schedule: Q01DX001 (oral), vehicle: alkali diluted with saline): 8 % of control
- T/C (dose: 480.0 mg/kg/injection, schedule: Q03DX004 (ip), vehicle: alkali diluted with saline): 2 % of control and 3 % of control
- T/C (dose: 480.0 mg/kg/injection, schedule: Q07DX002 (ip), vehicle: alkali diluted with saline): 6 % of control
- T/C (dose: 480.0 mg/kg/injection, schedule: Q07DX002 (oral), vehicle: alkali diluted with saline): 7 % of control
- T/C (dose: 640.0 mg/kg/injection, schedule: Q01DX001 (ip), vehicle: alkali diluted with saline): 5 % of control
- T/C (dose: 640.0 mg/kg/injection, schedule: Q01DX001 (oral), vehicle: alkali diluted with saline): 9 % of control
- T/C (dose: 640.0 mg/kg/injection, schedule: Q07DX002 (ip), vehicle: alkali diluted with saline): 4 % of control
- T/C (dose: 640.0 mg/kg/injection, schedule: Q07DX002 (oral), vehicle: alkali diluted with saline): 3 % of control
- T/C (dose: 960.0 mg/kg/injection, schedule: Q01DX001 (oral), vehicle: alkali diluted with saline): 9 % of control
- T/C (dose: 960.0 mg/kg/injection, schedule: Q07DX002 (oral), vehicle: alkali diluted with saline): 6 % of control
